Structures can show the parent of a compound that is named as a salt.
What was measured:
[1] = tested on: NCI-H292 lung cancer cells; assay: FDA drug screening, complete media vs cholesterol-free media without statin (TABLE 1); format: cell-based, human
[2] = tested on: NCI-H292 lung cancer cells; assay: FDA drug screening, complete media vs cholesterol-free media with simvastatin (TABLE 2); format: cell-based, human; conditions: for Cholesterol-free media + simvastatin (0.04 μM) / Complete Media: NCI-H292 cells
[3] = Complete minus Cholesterol-free, >0 enhanced anti-cancer activity, about 0 neutral, <0 antagonist
[4] = NCI-H292 cells, cholesterol-free media without statin
[5] = complete media vs cholesterol-free media + simvastatin (0.04 μM), >0 enhanced anti-cancer activity, about 0 neutral, <0 antagonist
[6] = cholesterol-free media with simvastatin 0.04 μM, FDA drug library screen (TABLE 2)
[7] = complete media, FDA drug library screen (TABLE 2)
[8] = NCI-H292 cells, cholesterol-free media without statin, FDA drug library screen
[9] = NCI-H292 cells, complete media, FDA drug library screen
[10] = complete vs cholesterol-free media, >0 enhanced anti-cancer activity, about 0 neutral, <0 antagonist
[11] = complete media minus cholesterol-free media + simvastatin (0.04 μM), >0 enhanced anti-cancer activity, about 0 neutral, <0 antagonist
[12] = complete vs cholesterol-free media, greater than 0 enhanced anti-cancer activity, about 0 neutral, below 0 antagonists
[13] = cholesterol-free media with simvastatin 0.04 μM, cell growth value in FDA drug screen
[14] = complete media, cell growth value in FDA drug screen
[15] = complete media minus cholesterol-free media + simvastatin, >0 enhanced anti-cancer activity, about 0 neutral, <0 antagonist
[16] = FDA drug library screen, cholesterol-free media with simvastatin 0.04 μM
[17] = FDA drug library screen, complete media
[18] = Complete minus Cholesterol-free, greater than 0 enhanced anti-cancer activity, about 0 neutral, below 0 antagonist
[19] = NCI-H292 cells, FDA drug library screen, cholesterol-free media without statin
[20] = NCI-H292 cells, FDA drug library screen, complete media
[21] = drug in cholesterol-free media with simvastatin 0.04 μM
[22] = FDA library drug in cholesterol-free media with simvastatin 0.04 μM
[23] = FDA library drug in complete media
[24] = Complete minus Cholesterol-free, greater than 0 enhanced anti-cancer activity, about 0 neutral, below 0 antagonists
[25] = NCI-H292 cells in cholesterol-free media without statin
[26] = NCI-H292 cells in complete media

C[C@H](CCC(=O)NCCS(=O)(=O)O)[C@H]1CC[C@H]2[C@@H]3CC[C@@H]4C[C@H](O)CC[C@]4(C)[C@H]3C[C@H](O)[C@]12C [Taurodeoxycholic acid (sodium hydrate)]
Difference [1, 3]: −0.23 | Cholesterol-free [1, 4]: 1.216 | Complete ([1]; NCI-H292 cells, complete media): 0.9829 | Difference [2, 5]: −0.45

Aprotinin
Difference ([1]; Complete minus Cholesterol-free, […]): −0.21 | Cholesterol-free [1, 4]: 0.7012 | Complete ([1]; NCI-H292 cells, complete media): 0.4863 | Cholesterol-free media + simvastatin (0.04 μM) [2, 6]: 0.8532 | Complete Media [2, 7]: 0.8102 | Difference ([2]; complete media minus cholesterol-free media + simvastatin (0.04 μM), […]): −0.04

COCC(=O)Nc1c(I)c(C(=O)NCC(O)CO)c(I)c(C(=O)N(C)CC(O)CO)c1I (stereo not shown) [Iopromide]
Cholesterol-free [1, 8]: 0.9462 | Complete [1, 9]: 1.578 | Difference [1, 10]: 0.63 | Cholesterol-free media + simvastatin (0.04 μM) [2, 6]: 0.8199 | Complete Media [2, 7]: 0.7955 | Difference [2, 11]: −0.02

C[C@@H]1C[C@H]2[C@@H]3C[C@H](F)C4=CC(=O)C=C[C@]4(C)[C@@]3(F)[C@@H](O)C[C@]2(C)[C@@]1(OC(=O)c1ccco1)C(=O)SCF [Fluticasone furoate]
Cholesterol-free [1, 4]: 1.047 | Complete ([1]; NCI-H292 cells, complete media): 0.6144 | Difference [1, 12]: −0.43 | Cholesterol-free media + simvastatin (0.04 μM) [2, 13]: 0.7104 | Complete Media [2, 14]: 0.7486 | Difference [2, 15]: 0.04

CCCOc1ccc(C(=O)OCCN(CC)CC)cc1N [Proparacaine (Hydrochloride)]
Cholesterol-free [1, 4]: 1.255 | Complete ([1]; NCI-H292 cells, complete media): 0.8769 | Difference [1, 12]: −0.38 | Cholesterol-free media + simvastatin (0.04 μM) [2, 16]: 0.544 | Complete Media [2, 17]: 1.021 | Difference [2, 15]: 0.48

NC(=O)C(c1ccccc1)(c1ccccc1)[C@@H]1CCN(CCc2ccc3c(c2)CCO3)C1 [Darifenacin (hydrobromide)]
Difference [1, 18]: −0.11 | Cholesterol-free [1, 19]: 1.186 | Complete [1, 20]: 1.075 | Cholesterol-free media + simvastatin (0.04 μM) [2, 16]: 1.197 | Complete Media [2, 17]: 1.073 | Difference [2, 5]: −0.12

C[C@H]1C[C@@H]2[C@H]([C@@H](O)C[C@@]3(C)[C@H]2CC[C@]3(O)C(=O)COC(=O)CCC(=O)O)[C@@]2(C)C=CC(=O)C=C12 [Methylprednisolone succinate]
Cholesterol-free [1, 4]: 0.8243 | Complete ([1]; NCI-H292 cells, complete media): 0.4661 | Difference [1, 12]: −0.36 | Cholesterol-free media + simvastatin (0.04 μM) [2, 21]: 0.9151 | Complete Media ([2]; drug in complete media): 0.7051 | Difference [2, 5]: −0.21

Sitagliptin (phosphate monohydrate)
Cholesterol-free [1, 4]: 1.047 | Complete ([1]; NCI-H292 cells, complete media): 0.6455 | Difference [1, 12]: −0.40 | Cholesterol-free media + simvastatin (0.04 μM) [2, 21]: 1.13 | Complete Media ([2]; drug in complete media): 0.959 | Difference [2, 5]: −0.17

C[C@]12CCC3=C4CCC(=O)C=C4CC[C@H]3[C@@H]1CC[C@@]2(O)CC#N [Dienogest]
Cholesterol-free [1, 4]: 1.387 | Complete ([1]; NCI-H292 cells, complete media): 1.069 | Difference [1, 12]: −0.32 | Cholesterol-free media + simvastatin (0.04 μM) [2, 21]: 0.9182 | Complete Media ([2]; drug in complete media): 0.7086 | Difference [2, 5]: −0.21

C=CC(N)CCC(=O)O (stereo not shown) [Vigabatrin]
Cholesterol-free [1, 8]: 0.7255 | Complete [1, 9]: 1.221 | Difference [1, 10]: 0.50 | Cholesterol-free media + simvastatin (0.04 μM) [2, 6]: 0.8099 | Complete Media [2, 7]: 0.7743 | Difference [2, 11]: −0.04

COc1ccc(C(CN(C)C)C2(O)CCCCC2)cc1 (stereo not shown) [Venlafaxine (hydrochloride)]
Cholesterol-free [1, 4]: 1.049 | Complete ([1]; NCI-H292 cells, complete media): 0.7326 | Difference ([1]; complete vs cholesterol-free media, […]): −0.32 | Cholesterol-free media + simvastatin (0.04 μM) [2, 22]: 1.551 | Complete Media [2, 23]: 1.023 | Difference ([2]; complete media vs cholesterol-free media + simvastatin (0.04 μM), […]): −0.53

CCCN[C@H]1CCc2nc(N)sc2C1 [Pramipexole]
Difference [1, 24]: −0.68 | Cholesterol-free [1, 25]: 1.519 | Complete [1, 26]: 0.8353 | Cholesterol-free media + simvastatin (0.04 μM) [2, 6]: 1.074 | Complete Media [2, 7]: 1.035 | Difference [2, 11]: −0.04

Cc1ccc(Sc2ccccc2N2CCNCC2)c(C)c1 [Vortioxetine]
Cholesterol-free [1, 8]: 0.5855 | Complete [1, 9]: 0.993 | Difference [1, 10]: 0.41 | Cholesterol-free media + simvastatin (0.04 μM) [2, 22]: 1.222 | Complete Media [2, 23]: 0.843 | Difference [2, 5]: −0.38

O=C1Cc2cc(CCN3CCN(c4nsc5ccccc45)CC3)c(Cl)cc2N1 [Ziprasidone (hydrochloride monohydrate)]
Cholesterol-free [1, 8]: 0.5848 | Complete [1, 9]: 0.8552 | Difference [1, 10]: 0.27 | Cholesterol-free media + simvastatin (0.04 μM) [2, 13]: 0.5734 | Complete Media [2, 14]: 0.6228 | Difference [2, 15]: 0.05

CC(C)=CCC/C(C)=C/CC/C(C)=C/C=C/C(C)=C/C(=O)O [Peretinoin]
Difference [1, 3]: −0.19 | Cholesterol-free [1, 4]: 1.271 | Complete ([1]; NCI-H292 cells, complete media): 1.084 | Cholesterol-free media + simvastatin (0.04 μM) [2, 22]: 1.273 | Complete Media [2, 23]: 0.971 | Difference [2, 5]: −0.30

COc1ccc(C(=O)N2CCN(c3ccc4c(c3)CCC(=O)N4)CC2)cc1OC [Vesnarinone]
Cholesterol-free [1, 8]: 0.9756 | Complete [1, 9]: 1.197 | Difference [1, 10]: 0.22 | Cholesterol-free media + simvastatin (0.04 μM) [2, 6]: 0.9506 | Complete Media [2, 7]: 0.9031 | Difference [2, 11]: −0.05

COc1nc(C)nc(Cl)c1N=C1NCCN1 [Moxonidine]
Difference [1, 3]: 0.05 | Cholesterol-free [1, 8]: 0.9137 | Complete [1, 9]: 0.9657 | Cholesterol-free media + simvastatin (0.04 μM) [2, 13]: 0.8373 | Complete Media [2, 14]: 0.9283 | Difference [2, 15]: 0.09

O=C(O)COCCN1CCN([C@H](c2ccccc2)c2ccc(Cl)cc2)CC1 [Levocetirizine (dihydrochloride)]
Difference [1, 3]: 0.02 | Cholesterol-free [1, 8]: 0.8691 | Complete [1, 9]: 0.8901 | Cholesterol-free media + simvastatin (0.04 μM) [2, 21]: 1.115 | Complete Media ([2]; drug in complete media): 0.8515 | Difference [2, 5]: −0.26

COc1cc2c(cc1OC)[C@@H]1Cc3ccc(OC)c(OC)c3CN1CC2 [Rotundine]
Difference [1, 3]: −0.21 | Cholesterol-free [1, 4]: 1.07 | Complete ([1]; NCI-H292 cells, complete media): 0.8588 | Cholesterol-free media + simvastatin (0.04 μM) [2, 22]: 1.094 | Complete Media [2, 23]: 0.8277 | Difference [2, 5]: −0.27

COC(=O)[C@H]1[C@H]2C[C@@H]3c4[nH]c5cc(OC)ccc5c4CCN3C[C@H]2C[C@@H](OC(=O)c2cc(OC)c(OC)c(OC)c2)[C@@H]1OC [Reserpine]
Difference [1, 3]: −0.28 | Cholesterol-free [1, 4]: 1.042 | Complete ([1]; NCI-H292 cells, complete media): 0.7591 | Cholesterol-free media + simvastatin (0.04 μM) [2, 13]: 0.8906 | Complete Media [2, 14]: 0.9102 | Difference [2, 15]: 0.02

Cn1c(=O)c2[nH]c(Br)nc2n(C)c1=O [Pamabrom]
Difference [1, 18]: −0.16 | Cholesterol-free [1, 19]: 0.9285 | Complete [1, 20]: 0.7717 | Cholesterol-free media + simvastatin (0.04 μM) [2, 13]: 0.9207 | Complete Media [2, 14]: 0.9433 | Difference [2, 15]: 0.02

C[Se]CC[C@H](N)C(=O)O [Selenomethionine]
Difference [1, 24]: −0.63 | Cholesterol-free [1, 25]: 1.898 | Complete [1, 26]: 1.265 | Cholesterol-free media + simvastatin (0.04 μM) [2, 16]: 1.83 | Complete Media [2, 17]: 1.71 | Difference [2, 5]: −0.12

Nc1ncc2ncn(CC3(OCP(=O)(O)O)CC3)c2n1 [Besifovir]
Cholesterol-free [1, 4]: 1.23 | Complete ([1]; NCI-H292 cells, complete media): 0.9121 | Difference [1, 12]: −0.32 | Cholesterol-free media + simvastatin (0.04 μM) [2, 13]: 0.9124 | Complete Media [2, 14]: 0.9846 | Difference [2, 15]: 0.07

Source: US20250144067A1, “PERSONALIZED STARVATION THERAPY FOR CANCER” (Faeth Therapeutics, Inc., priority 2021, published 2025)
